Data taken from ChEMBL document CHEMBL3593163, “Synthesis and Characterization of 5-Hydroxy-2-(2-phenylethyl)chromone (5-HPEC) and Its Analogues as Non-nitrogenous 5-HT2B Ligands” (J Nat Prod, 2015).

Tests used:
[1] = target: 5-hydroxytryptamine receptor 2A (Homo sapiens) (UniProt P28223); assay: Displacement of [3H]ketanserin from human 5HT2A receptor expressed in HEKT cells membranes at 10 uM; assay type: cell membranes
[2] = target: T1, 5-hydroxytryptamine receptor 2C (Homo sapiens) (UniProt P28335); assay: Displacement of [3H]mesulergine from human 5HT2C receptor expressed in Flp-IN HEK cell membranes at 10 uM; conditions: HEK293
T1 sequence (whole entry): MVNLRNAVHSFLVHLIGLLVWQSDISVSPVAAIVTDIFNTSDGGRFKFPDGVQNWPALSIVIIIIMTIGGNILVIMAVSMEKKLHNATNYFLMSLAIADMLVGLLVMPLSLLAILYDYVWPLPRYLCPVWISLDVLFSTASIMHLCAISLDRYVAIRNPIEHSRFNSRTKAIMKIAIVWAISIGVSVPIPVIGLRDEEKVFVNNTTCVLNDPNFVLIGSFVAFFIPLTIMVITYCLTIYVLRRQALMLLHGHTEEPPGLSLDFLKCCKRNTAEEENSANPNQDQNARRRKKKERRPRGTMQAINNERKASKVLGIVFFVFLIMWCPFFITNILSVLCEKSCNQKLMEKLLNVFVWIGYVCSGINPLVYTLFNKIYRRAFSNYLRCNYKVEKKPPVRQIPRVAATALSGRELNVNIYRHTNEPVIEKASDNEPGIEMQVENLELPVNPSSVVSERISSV

[3] = target: 5-hydroxytryptamine receptor 2B (Homo sapiens) (UniProt P41595); assay: Displacement of [3H]LSD from human 5HT2B receptor expressed in stable HEK cells membranes at 10 uM; assay type: cell membranes; conditions: HEK293
[4] = target: 5-hydroxytryptamine receptor 2B (Homo sapiens) (UniProt P41595); assay: Agonist activity at human 5HT2B receptor expressed in Flp-IN HEK cells at 10 um by calcium mobilization assay relative to 5-HT; assay type: functional, cell-based; conditions: HEK293
[5] = target: 5-hydroxytryptamine receptor 2B (Homo sapiens) (UniProt P41595); assay: Antagonist activity against human 5HT2B receptor expressed in Flp-IN HEK cells assessed as inhibition of 5-HT-induced response at 10 uM by calcium mobilization assay; assay type: functional, cell-based; conditions: HEK293
[6] = target: 5-hydroxytryptamine receptor 2B (Homo sapiens) (UniProt P41595); assay: Potency index, ratio of pKi for 5-HPEC to pKi for test compound against human 5HT2B receptor expressed in stable HEK cells membranes; assay type: cell-based; conditions: HEK293

Sequence of 5-hydroxytryptamine receptor 2B (Homo sapiens) (P41595 whole entry): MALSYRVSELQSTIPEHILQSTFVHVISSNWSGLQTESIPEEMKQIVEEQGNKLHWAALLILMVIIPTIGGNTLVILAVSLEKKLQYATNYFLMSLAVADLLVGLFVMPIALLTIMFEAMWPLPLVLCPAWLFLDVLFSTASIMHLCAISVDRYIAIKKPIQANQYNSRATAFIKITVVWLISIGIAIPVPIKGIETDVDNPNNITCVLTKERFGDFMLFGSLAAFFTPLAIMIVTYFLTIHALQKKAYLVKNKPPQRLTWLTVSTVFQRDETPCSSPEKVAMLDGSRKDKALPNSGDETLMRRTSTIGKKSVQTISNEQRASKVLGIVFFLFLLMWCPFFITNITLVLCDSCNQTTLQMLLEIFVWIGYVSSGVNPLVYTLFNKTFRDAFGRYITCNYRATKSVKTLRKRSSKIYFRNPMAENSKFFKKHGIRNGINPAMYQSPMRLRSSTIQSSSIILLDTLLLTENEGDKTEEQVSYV
Sequence of 5-hydroxytryptamine receptor 2A (Homo sapiens) (P28223 whole entry): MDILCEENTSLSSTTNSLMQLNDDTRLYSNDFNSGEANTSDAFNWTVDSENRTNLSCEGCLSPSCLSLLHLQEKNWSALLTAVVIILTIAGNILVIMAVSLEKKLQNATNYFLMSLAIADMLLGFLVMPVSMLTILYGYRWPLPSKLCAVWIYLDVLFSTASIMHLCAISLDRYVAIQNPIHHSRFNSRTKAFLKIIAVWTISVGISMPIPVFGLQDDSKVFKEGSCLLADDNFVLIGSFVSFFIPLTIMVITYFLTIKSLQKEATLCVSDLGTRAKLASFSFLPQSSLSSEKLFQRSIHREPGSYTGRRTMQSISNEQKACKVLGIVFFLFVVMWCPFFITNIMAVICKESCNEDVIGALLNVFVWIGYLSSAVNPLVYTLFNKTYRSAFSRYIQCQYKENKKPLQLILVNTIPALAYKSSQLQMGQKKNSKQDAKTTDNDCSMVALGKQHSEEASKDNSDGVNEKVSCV

Compound: O=c1cc(CCc2ccc(O)cc2)oc2cc(O)ccc12
- inhibition [1]: 33.3%
- inhibition [2]: 53.1%
- inhibition [3]: 40.8%

Compound: O=c1cc(COc2ccccc2)oc2cccc(O)c12
- inhibition [2]: 7%

Compound: O=c1cc(CCc2ccccc2O)oc2cc(O)ccc12
- inhibition [1]: 47.9%
- inhibition [2]: 44%
- inhibition [3]: 16.6%

Compound: O=c1cc(CCCc2ccccc2)oc2cccc(O)c12
- Efficacy [4]: 0.23%
- inhibition [5]: 20.5%
- Ratio [6]: 10

Compound: O=c1cc(CCc2cccc(O)c2)oc2cccc(O)c12
- inhibition [1]: 39%
- inhibition [2]: 30.4%
- inhibition [3]: 76.3%

Compound: O=c1cc(CCc2cccc(O)c2)oc2cc(O)ccc12
- inhibition [1]: 23.2%
- inhibition [2]: 0%
- inhibition [3]: 25.3%

Compound: O=c1cc(CCc2ccco2)oc2cccc(O)c12
- inhibition [1]: 12.4%
- inhibition [2]: 24.2%
- inhibition [3]: 68.8%

Compound: O=c1cc(COCc2ccccc2)oc2cccc(O)c12
- inhibition [1]: 3.2%
- inhibition [2]: 42.1%
- inhibition [3]: 77.7%

Compound: O=c1cc(CCc2ccccc2)oc2cc(O)ccc12
- inhibition [1]: 35.5%
- inhibition [2]: 33.7%
- inhibition [3]: 34.2%

Compound: O=c1cc(CCc2ccccc2O)oc2cccc(O)c12
- inhibition [1]: 24.3%
- inhibition [2]: 23.8%
- inhibition [3]: 12.8%
